Test results taken from article PMC12217463, “Functional and structural analyses of amino acid sequence variation in PDC β-lactamase reveal different mechanistic pathways toward cefiderocol resistance in Pseudomonas aeruginosa” (Antimicrobial Agents and Chemotherapy, 2025).
Values after ≈ are worked out from the molar mass of the structure shown.

Columns and labels:
PDC-1 (WT) = PDC-1 (WT) (Pseudomonas aeruginosa, UniProt P24735); experiment: Steady-state kinetics of purified β-lactamase
[1] = system: PAO ΔpiuC producing the ∆P215-G222, E219K, F121L + E219K, and L293P variants; experiment: MIC, group of variants in PAO ΔpiuC; type: cell-based; details: Pseudomonas aeruginosa
Source text: (§1) We took advantage of a previously constructed and characterized laboratory collection of recombinant P. aeruginosa PAO1 isolates expressing different blaPDC variants, but specifically enriched for this work with additional variants, following the previously described methodology ([17]). […] The final collection comprised 40 recombinant isolates (20 in PAO1 and 20 in PAO ΔpiuC) producing the wild-type PDC-1 variant from PAO1 and 19 derivatives carrying specific amino acid substitutions previously associated with the development of resistance to ceftazidime/avibactam, ceftolozane/tazobactam, or cefiderocol: T70I, F121L, P153L, G156D, A200T, G202S, ΔG202-E219, G214R, P215L, P215S, ΔP215-G222, D217N, E219K, E219G, E219D, S226ins, L293P, F121L + E219K, and F121L + G222S.
The MICs of ceftazidime, ceftazidime/avibactam, ceftolozane/tazobactam, cefepime, and cefiderocol were determined in triplicate, for all isolates, by reference broth microdilution assays. Avibactam and tazobactam were fixed at 4 mg/L. All assays were performed using cation-adjusted Mueller-Hinton broth (CAMHB), except for cefiderocol, which was determined in all cases using iron-depleted CAMHB, prepared according to CLSI M100 guidelines ([40]). EUCAST v.15.0 clinical breakpoints and guidelines (http://www.eucast.org/clinical_breakpoints/) were used for reference purposes. […]

[2] = system: PAO ΔpiuC producing PDC L293P; experiment: Cefiderocol MIC, iron uptake-deficient host; type: cell-based; details: Pseudomonas aeruginosa
Source text: as §1
(§2) The MICs of ceftazidime, ceftazidime/avibactam, ceftolozane/tazobactam, cefepime, and cefiderocol were determined in triplicate, for all isolates, by reference broth microdilution assays. Avibactam and tazobactam were fixed at 4 mg/L. All assays were performed using cation-adjusted Mueller-Hinton broth (CAMHB), except for cefiderocol, which was determined in all cases using iron-depleted CAMHB, prepared according to CLSI M100 guidelines ([40]). EUCAST v.15.0 clinical breakpoints and guidelines (http://www.eucast.org/clinical_breakpoints/) were used for reference purposes. Reference strains Escherichia coli ATCC 25922, Klebsiella pneumoniae ATCC 700603, and P. aeruginosa ATCC 27853 were used as controls.

[3] = system: PAO ΔpiuC producing PDC T70I; experiment: Cefiderocol MIC, iron uptake-deficient host; type: cell-based; details: Pseudomonas aeruginosa
Source text: as §1, §2

[4] = system: PAO ΔpiuC producing PDC E219K; experiment: Cefiderocol MIC, iron uptake-deficient host; type: cell-based; details: Pseudomonas aeruginosa
Source text: as §1, §2

[5] = system: PAO ΔpiuC producing PDC F121L; experiment: Cefiderocol MIC, iron uptake-deficient host; type: cell-based; details: Pseudomonas aeruginosa
Source text: as §1, §2

[6] = system: PAO ΔpiuC producing PDC D217N; experiment: Cefiderocol MIC, iron uptake-deficient host; type: cell-based; details: Pseudomonas aeruginosa
Source text: as §1, §2

[7] = system: PAO ΔpiuC producing PDC E219D; experiment: Cefiderocol MIC, iron uptake-deficient host; type: cell-based; details: Pseudomonas aeruginosa
Source text: as §1, §2

[8] = system: PAO ΔpiuC producing PDC F121L + E219K; experiment: Cefiderocol MIC, iron uptake-deficient host; type: cell-based; details: Pseudomonas aeruginosa
Source text: as §1, §2

[9] = system: PAO ΔpiuC producing PDC G202S; experiment: Cefiderocol MIC, iron uptake-deficient host; type: cell-based; details: Pseudomonas aeruginosa
Source text: as §1, §2

[10] = system: PAO ΔpiuC producing PDC A200T; experiment: Cefiderocol MIC, iron uptake-deficient host; type: cell-based; details: Pseudomonas aeruginosa
Source text: as §1, §2

[11] = system: PAO ΔpiuC producing PDC G214R; experiment: Cefiderocol MIC, iron uptake-deficient host; type: cell-based; details: Pseudomonas aeruginosa
Source text: as §1, §2

[12] = system: PAO ΔpiuC producing PDC ∆P215-G222; experiment: Cefiderocol MIC, iron uptake-deficient host; type: cell-based; details: Pseudomonas aeruginosa
Source text: as §1, §2

[13] = system: PAO ΔpiuC producing PDC P153L; experiment: Cefiderocol MIC, iron uptake-deficient host; type: cell-based; details: Pseudomonas aeruginosa
Source text: as §1, §2

PAO ΔpiuC = experiment: Cefiderocol MIC, iron uptake-deficient host; type: cell-based; details: Pseudomonas aeruginosa
Source text: as §1, §2

[14] = system: PAO ΔpiuC producing PDC S226ins; experiment: Cefiderocol MIC, iron uptake-deficient host; type: cell-based; details: Pseudomonas aeruginosa
Source text: as §1, §2

[15] = system: PAO ΔpiuC producing PDC-1 (WT); experiment: Cefiderocol MIC, iron uptake-deficient host; type: cell-based; details: Pseudomonas aeruginosa
Source text: as §1, §2

Structure (SMILES): CC(C)(O/N=C(\C(=O)N[C@@H]1C(=O)N2C(C(=O)[O-])=C(C[N+]3(CCNC(=O)c4ccc(O)c(O)c4Cl)CCCC3)CS[C@H]12)c1csc(N)n1)C(=O)O [FDC, cefiderocol]
- kcat (PDC-1 (WT); PDC-1 (WT), direct hydrolysis at substrate concentration at least three times the Km, 10 mM PBS, pH 7.4, room temperature): 0.0036 s⁻¹
- Ratio (PDC-1 (WT); kcat/Km relative to PDC-1 (reference = 1)): 1
- MIC [1]: 32 to 64 µg/mL (≈ 42.5 to 85.1 µM)
- MIC [2]: 32 µg/mL (≈ 42.5 µM)
- MIC [3]: 8 µg/mL (≈ 10.6 µM)
- MIC [4]: 32 µg/mL (≈ 42.5 µM)
- MIC [5]: 8 µg/mL (≈ 10.6 µM)
- MIC [6]: 8 µg/mL (≈ 10.6 µM)
- MIC [7]: 8 µg/mL (≈ 10.6 µM)
- MIC [8]: 64 µg/mL (≈ 85.1 µM)
- MIC [9]: 8 µg/mL (≈ 10.6 µM)
- MIC [10]: 8 µg/mL (≈ 10.6 µM)
- MIC [11]: 16 µg/mL (≈ 21.3 µM)
- MIC [12]: 32 µg/mL (≈ 42.5 µM)
- MIC [13]: 8 µg/mL (≈ 10.6 µM)
- MIC (PAO ΔpiuC): 2 µg/mL (≈ 2.66 µM)
- MIC [14]: 8 µg/mL (≈ 10.6 µM)
- MIC [15]: 4 µg/mL (≈ 5.32 µM)
